In PubChem BioAssay AID1918994 (Molecular Pharmacology Branch, DTP, NCI, 2023):

System: 292921-168-R-J2-PDC complex spheroid growth
Assay: Anticancer human tumor 292921-168-R-J2-PDC patient-derived pancreatic carcinoma cell line growth inhibition [AhR]
Details: for IC50: curve of first compound; for viability, T/C: stronger effect = lower value
How it was run: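 Spheroids combined tumor cells with HUVEC endothelial cells and human MSCs as stroma. AhR antagonists were paired with standard or investigational drugs, each dosed in half-log steps down from near clinical Cmax, or from 10 microM where Cmax was unknown.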

[1] = second compound 0.1 µM, first compound 0.0316 µM
[2] = second compound 0.1 µM, first compound 0.1 µM
[3] = second compound 0.1 µM, first compound 0.316 µM
[4] = second compound 0.1 µM, first compound 1 µM
[5] = second compound 0.316 µM, first compound 0.0316 µM
[6] = second compound 0.316 µM, first compound 0.1 µM
[7] = second compound 0.316 µM, first compound 0.316 µM
[8] = second compound 0.316 µM, first compound 1 µM
[9] = second compound 1 µM, first compound 0.0316 µM
[10] = second compound 1 µM, first compound 0.1 µM
[11] = second compound 1 µM, first compound 0.316 µM
[12] = second compound 1 µM, first compound 1 µM
[13] = second compound 3.16 µM, first compound 0.0316 µM
[14] = second compound 3.16 µM, first compound 0.1 µM
[15] = second compound 3.16 µM, first compound 0.316 µM
[16] = second compound 3.16 µM, first compound 1 µM
[17] = second compound 10 µM, first compound 0.0316 µM
[18] = second compound 10 µM, first compound 0.1 µM
[19] = second compound 10 µM, first compound 0.316 µM
[20] = second compound 10 µM, first compound 1 µM
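Further: spheroids exposed to compounds for seven days after three days of growth.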

| SMILES | IC50 (second compound 0.1 µM) [nM] | IC50 (second compound 0.316 µM) [nM] | IC50 (second compound 1 µM) [nM] | IC50 (second compound 3.16 µM) [nM] | IC50 (second compound 10 µM) [nM] | viability, T/C [1] [%] | viability, T/C [2] [%] | viability, T/C [3] [%] | viability, T/C [4] [%] | viability, T/C [5] [%] | viability, T/C [6] [%] | viability, T/C [7] [%] | viability, T/C [8] [%] | viability, T/C [9] [%] | viability, T/C [10] [%] | viability, T/C [11] [%] | viability, T/C [12] [%] | viability, T/C [13] [%] | viability, T/C [14] [%] | viability, T/C [15] [%] | further results |
| --- | --- | --- | --- | --- | --- | --- | --- | --- | --- | --- | --- | --- | --- | --- | --- | --- | --- | --- | --- | --- | --- |
| CC1COCCN1c1cc(-c2ccnn2C)c2ccnc(-c3ccn[nH]3)c2n1 (stereo not given) + Cc1ccccc1N=Nc1ccc(NC(=O)c2ccnn2C)c(C)c1 | 38.5 | 43.9 | 33.1 | 20 | 13.2 | 54.5 | 26.6 | 18.5 | 15.5 | 58.9 | 28.8 | 18 | 16.2 | 51.8 | 25 | 19.3 | 15.7 | 37.3 | 23.2 | 16.7 | viability, T/C (second compound 0.1 µM, first compound 0.00316 µM): 95.7%; viability, T/C (second compound 0.1 µM, first compound 0.01 µM): 86.6%; viability, T/C (second compound 0.316 µM, first compound 0.00316 µM): 90.8%; viability, T/C (second compound 0.316 µM, first compound 0.01 µM): 81.6%; viability, T/C (second compound 1 µM, first compound 0.00316 µM): 83.4%; viability, T/C (second compound 1 µM, first compound 0.01 µM): 74.3%; viability, T/C (second compound 3.16 µM, first compound 0.00316 µM): 79.2%; viability, T/C (second compound 3.16 µM, first compound 0.01 µM): 68.1%; viability, T/C [16]: 13.8%; viability, T/C (second compound 10 µM, first compound 0.00316 µM): 57.8%; viability, T/C (second compound 10 µM, first compound 0.01 µM): 57%; viability, T/C [17]: 29.8%; viability, T/C [18]: 25.1%; viability, T/C [19]: 19.2%; viability, T/C [20]: 15.8% |
| COc1ccc([C@@H](O)c2cc(-c3ncnc4cc(N5CCOCC5)ccc34)c(F)cc2Cl)nn1 + Cc1ccccc1N=Nc1ccc(NC(=O)c2ccnn2C)c(C)c1 | 1950 | 1930 | 1650 | 1320 | 529 | 89.1 | 81.5 | 81 | 56.2 | 90 | 80.9 | 79.2 | 59.7 | 76.5 | 81.6 | 71.6 | 55.8 | 70.7 | 68 | 66.6 | viability, T/C (second compound 0.1 µM, first compound 3.16 µM): 44.9%; viability, T/C (second compound 0.1 µM, first compound 10 µM): 27%; viability, T/C (second compound 0.316 µM, first compound 3.16 µM): 42.1%; viability, T/C (second compound 0.316 µM, first compound 10 µM): 24%; viability, T/C (second compound 1 µM, first compound 3.16 µM): 41%; viability, T/C (second compound 1 µM, first compound 10 µM): 22.4%; viability, T/C [16]: 52%; viability, T/C (second compound 3.16 µM, first compound 3.16 µM): 38.5%; viability, T/C (second compound 3.16 µM, first compound 10 µM): 21%; viability, T/C [17]: 57.4%; viability, T/C [18]: 54.6%; viability, T/C [19]: 53.7%; viability, T/C [20]: 46.8%; viability, T/C (second compound 10 µM, first compound 3.16 µM): 34.9%; viability, T/C (second compound 10 µM, first compound 10 µM): 20.4% |
